According to patent publication US20050142080A1, “Cosmetic or dermatological light protection formulation with a benzoxazole derivative” (Beiersdorf AG, priority 2001, published 2005):

| SMILES | σ [mN/m] at 25° C. (surface tension) |
| --- | --- |
| CCCCCCC(CO)CCCC (centres unmarked) [Butyl Octanol] | 26.9 mN/m |
| CCCCCCCCCCC(CO)CCCCCCCC (centres unmarked) [Octyldodecanol] | 28.9 mN/m |
